Test results: article PMC11626117 (Proceedings of the National Academy of Sciences of the …, 2024)

Target: CoaX (Rv3600c) (Mycobacterium tuberculosis, UniProt P9WPA1)
Sequence (P9WPA1 whole entry, looked up): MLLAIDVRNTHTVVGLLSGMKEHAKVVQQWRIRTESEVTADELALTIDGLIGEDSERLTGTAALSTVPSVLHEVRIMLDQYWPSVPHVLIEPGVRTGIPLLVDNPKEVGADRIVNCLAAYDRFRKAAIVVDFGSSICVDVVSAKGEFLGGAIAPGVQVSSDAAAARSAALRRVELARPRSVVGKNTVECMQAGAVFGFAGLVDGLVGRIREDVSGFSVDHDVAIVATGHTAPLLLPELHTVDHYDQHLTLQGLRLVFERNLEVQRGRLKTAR

SMILES	thermal shift
Nc1ncnc2c1ncn2[C@@H]1O[C@H](COP(=O)(O)OP(=O)(O)OP(O)(O)=S)[C@@H](O)[C@H]1O [ATPγS]	increasing concentrations of ATPγS in the presence of pantothenate had the largest effect
CC(C)(CO)[C@@H](O)C(=O)NCCC(=O)O [pantothenate]	Increasing pantothenate concentration had a subtle effect on CoaX thermostability
